Measurements from patent US11819483B2, “Combination therapy to treat urea cycle disorders” (Baylor College of Medicine, priority 2017, dated 2023).
Like-named read-outs stand apart in the source and are kept apart here. Marks after values point to notes of the source that are not given here.

Assays:
[1] = day 4
[2] = Urea metabolism and total urinary nitrogen excretion; assay type: in vivo, human; design: Urinary urea-^15N: unit not given here; details: for Urinary N: N intake 9.81 g/d; for Urea production: [^13C^18O]urea tracer, day 4; for ^15N as % of test meal: urinary urea ^15N
Protocol: (§1) This was a randomized, three-arm, crossover study. Each arm was completed over a four-day period with a washout period of at least 7 days between any two of the treatment arms (FIG. 1). […] The treatments were designed to provide isomolar amount of drugs and the total daily dose was administered in three equally divided doses.
(§2) On day 1 of study arm 1, detailed medical history review and physical examination were performed. Complete blood count, comprehensive metabolic panel, plasma ammonia, and urinalysis (safety laboratory measurements) were performed. Urine pregnancy test was performed on all females. Meals prepared at the CNRC to provide 0.8 g·kg^−1·day^−1 protein and 32 kcal·kg^−1·day^−1 were given for next three days. The standardized protein and caloric intake allowed for comparison of nitrogen excretion among the three arms. Subjects were randomized to a predetermined treatment sequence and the first dose of the appropriate medication was administered under supervision. Subjects took the study medication with meals for three days (08:00 breakfast; 13:00 lunch; 19:00 dinner) (FIG. 1). […] On day 3, subjects omitted the 19:00 dose of the medication to prevent interference with the analysis on day 4 from metabolite conjugates from the previous day. On day 4, fasting blood sample was obtained for the determination of plasma amino acids and urea concentrations, background isotopic enrichments, basic metabolic profile, complete blood count, and plasma concentrations of phenylbutyrate, benzoate, PAGN, and HA. Urine was collected for measurements of urea, phenylbutyrate, benzoate, PAGN, and HA. At 0 hours, the test meal containing half of the daily dietary allowance of protein (0.4 g·kg^−1) was provided by a commercial liquid meal replacement (Ensure Plus, Abbott, Abbot Park, Ill.) and ^15N labeled spirulina (40 mg·kg^−1; ISOTEC, Miamisburg, Ohio). […] A dose of 40 mg·kg^−1 labeled ^15N-labeled spirulina was estimated to result in dietary enrichment of ˜5 mole percent excess. The morning meal, which was ingested in ˜10 minutes, was followed by a dose of study medication and an intravenous bolus dose of urea tracer, [^13C^18O]urea (6 mmol/subject; ISOTEC, Miamisburg, Ohio). Blood samples to determine concentrations and isotopic enrichments of the drugs and their conjugated products, as well as amino acids and urea were collected every 30 minutes for the first four hours and then hourly between hours 4 and 8 (FIG. 1). Urine was collected in four 2-hour batched periods during the eight hour admission period. […] The procedures for the study arms 2 and 3 were identical to those performed in arm 1.
(§3) Plasma and urinary drugs and their conjugated products as well as urea and amino acids were determined by mass spectrometry and quantitated based on the dilution of labeled internal standards. Total urinary nitrogen was determined using the micro-Kjeldahl method.
Plasma amino acids concentrations and enrichments were determined by HESI LC-MS/MS. A cell free U-[^13C^15N] amino acid mix was used as internal standard. Total urinary nitrogen was determined using the micro-Kjeldahl method.

[3] = Urinary excretion of phenylbutyrate, benzoate and their conjugated products; nitrogen conjugation in 24 h urine; details: for Total N excreted as conjugated products, % test meal: fraction of nitrogen content of test meal; for efficacy of conjugation (percent of dose recovered as conjugate in 24 h urine): given as sole treatments, highest dose; for Conjugation efficacy: nitrogen conjugated divided by amount of drug provided
Protocol: as §1, §2, §3
Plasma and urinary phenylbutyrate, PAA, and benzoate were determined as their pentafluorobenzyl derivatives by NCI-GC-MS; . [^2H5] […] 4-phenylbutyric acids (C/D/N Isotopes, Quebec, Canada) were used as internal standards. Underivatized PAGN and HA were measured by HESI LC-MS/MS; [^2H5] PAGN and [^2H5] HA (C/D/N Isotopes, Quebec, Canada) were used as internal standards.
Accordingly, these background values were subtracted from the values obtained during the treatment with phenylbutyrate and benzoate. The total amount of nitrogen conjugated was expressed as fraction of the test meal, by dividing by the total nitrogen content of the test meal. The conjugation of dietary nitrogen was calculated as the amount of ^15N conjugated by multiplying the total amount of nitrogen conjugated by the respective ^15N enrichment. For PAGN, the labeling of the amino and amido group were considered.

clinical = details: human, in vivo
[4] = plasma
Protocol: On day 1 of study arm 1, detailed medical history review and physical examination were performed. Complete blood count, comprehensive metabolic panel, plasma ammonia, and urinalysis (safety laboratory measurements) were performed. Urine pregnancy test was performed on all females. Meals prepared at the CNRC to provide 0.8 g·kg^−1·day^−1 protein and 32 kcal·kg^−1·day^−1 were given for next three days. The standardized protein and caloric intake allowed for comparison of nitrogen excretion among the three arms. Subjects were randomized to a predetermined treatment sequence and the first dose of the appropriate medication was administered under supervision. Subjects took the study medication with meals for three days (08:00 breakfast; 13:00 lunch; 19:00 dinner) (FIG. 1). […] On day 3, subjects omitted the 19:00 dose of the medication to prevent interference with the analysis on day 4 from metabolite conjugates from the previous day. On day 4, fasting blood sample was obtained for the determination of plasma amino acids and urea concentrations, background isotopic enrichments, basic metabolic profile, complete blood count, and plasma concentrations of phenylbutyrate, benzoate, PAGN, and HA. […]
Plasma amino acids concentrations and enrichments were determined by HESI LC-MS/MS. […] Total urinary nitrogen was determined using the micro-Kjeldahl method.

[5] = 24 h urine, ^15N labeled test meal
[6] = 24 h urine, background subtracted

Compound	% N excreted from daily intake ([2]; 24 h urine) [%]	Urea N as a % total urinary N ([2]; 24 h urine) [%]	Urinary Urea N ([2]; 24 h urine) [g/day]	Urinary N ([2]; 24 h urine) [g/day]	Urea production [2] [µmol/kg/h]	^15N as % of test meal ([2]; 24 h urine) [%]	urinary excretion of unconjugated drug ([3]; 24 h urine)	Total 15N in conjugated products, % test meal [3, 5] [% test meal]	Total N excreted as conjugated products, % test meal ([3]; 24 h urine)	efficacy of conjugation (percent of dose recovered as conjugate in 24 h urine) [3] [%]	Conjugation efficacy ([3]; gram basis)	Conjugation efficacy ([3]; molar basis)	other results
O=C([O-])c1ccccc1.[Na+] [NaBz, sodium benzoate]	65.1	65.1	4.20	6.38	197	14.7	negligible	1.51	4.65 ^b % test meal	~65	64.2^b mg N/g drug	9.25^b mg N/mmol drug	Bz AUC0-8 ([1]; plasma benzoate, 0 to 8 h): 301.7 µmol/L; Bz Tmax ([1]; plasma benzoate): 1.6^b h; Bz Tmax ([1]; plasma benzoate, listed as benzoate): ~1.5 h; Benzoate Cmax and AUC0-8, NaBz arm relative to MIX arm ([1]; plasma): 4-5 times; Cmax ([1]; read-out: Bz Cmax, plasma benzoate): 217 µM; Urinary excretion of Bz ([3]; 24 h urine): 6.5 μmol/24 h; Urinary excretion of Bz, % of dose ([3]; 24 h urine): 0.02 % of dose; Urinary HA (Conjugated ^15N Products) [3, 5]: 253.9 μmol/24 h; Urinary excretion of HA [3, 6]: 16.4 mmol/24 h; Urinary excretion of HA, % of dose ([3]; 24 h urine, percent of benzoate dose recovered as HA): 66.1 % of dose
O=C(O)Cc1ccccc1 [PAA, phenylacetate]	–	–	–	–	–	–	negligible	–	–	–	–	–	–
O=C(O)CNC(=O)c1ccccc1 [hippuric acid]	–	–	–	–	–	–	–	–	–	–	–	–	Tmax (clinical): 2.2 h
sodium phenylbutyrate [NaPB]	65.6	63.6	4.16	6.47	192	15.2	negligible	1.62	8.74 ^a % test meal	~65	92.5^ab mg N/g drug	17.2^a mg N/mmol drug	Urinary urea-^15N [2, 5]: 37.0; Total N excreted as conjugated products ([3]; 24 h urine): 30.7 mmol/24 h; Urinary excretion of PAA ([3]; 24 h urine): 40.3 μmol/24 h; Urinary excretion of PAA, % of dose ([3]; 24 h urine): 0.16 % of dose; Urinary excretion of PB ([3]; 24 h urine): 32.3 μmol/24 h; Urinary excretion of PB, % of dose ([3]; 24 h urine): 0.13 % of dose; Urinary 2&5-[^15N] PAGN [3, 5]: 38.9 μmol/24 h; Urinary 2-[^15N] PAGN [3, 5]: 43.9 μmol/24 h; Urinary excretion of PAGN [3, 6]: 15.3 mmol/24 h; Urinary excretion of PAGN, % of dose ([3]; 24 h urine, percent of phenylbutyrate dose recovered as PAGN): 61.5 % of dose; leucine AUC0-8 ([4]; response to phenylbutyrate inclusion in the treatment, P=0.032): reduction; tryptophan AUC0-8 ([4]; response to phenylbutyrate, P<0.001): reduction
